Data from ChEMBL document CHEMBL5143640, “Diverse Sesquiterpenoids and Polyacetylenes from Atractylodes lancea and Their Anti-Osteoclastogenesis Activity” (J Nat Prod, 2022).

What was measured:
BMDM [1] = experiment: Anti-osteoclastogensis activity C57BL/6 mouse bone marrow macrophages assessed as inhibition of RANKL-induced osteoclastogenesis by measuring osteoclasts number at 1 to 10 uM and measured after 5 days in presence of M-CSF by TRAP staining based assay; type: functional, cell-based; conditions: dose 1-10 µM, time 5.0 day, DDE = dose-dependent effect
BMDM [2] = experiment: Anti-osteoclastogensis activity C57BL/6 mouse bone marrow macrophages assessed as inhibition of RANKL-induced osteoclastogenesis by measuring osteoclasts size at 1 to 10 uM and measured after 5 days in presence of M-CSF by TRAP staining based assay; type: functional, cell-based; conditions: dose 1-10 µM, time 5.0 day, DDE = dose-dependent effect
[3] = Anti-osteoclastogensis activity C57BL/6 mouse bone marrow macrophages assessed as inhibition of RANKL-induced osteoclastogenesis and measured after 5 days in presence of M-CSF by TRAP staining based assay; type: functional, cell-based; conditions: bmdm
BMDM [4] = experiment: Cytotoxicity against C57BL/6 mouse bone marrow macrophages assessed as reduction in cell viability at 10 uM incubated for 48 hrs in presence of M-CSF by CCK8 assay; type: toxicity, cell-based

OC/C=C/C#CC#C/C=C/c1ccco1
Activity (BMDM [1]): Dde | Activity (BMDM [2]): Dde | IC50 [3]: 640 nM | Activity (BMDM [4]): Non-Toxic

CC(=O)OCCC(/C=C/C=C/C#CC#C/C=C/CO)OC(C)=O (stereo not drawn)
Activity (BMDM [1]): Dde | Activity (BMDM [2]): Dde | IC50 [3]: 1300 nM | Activity (BMDM [4]): Non-Toxic
